Experiment [1] concerns DPP IV. The format is biochemical, P. gingivalis. The note with it: pH 7.6.
The subject of experiment [2] is PTP-A. The format is biochemical, P. gingivalis. The conditions noted are these: for Residual activity of PTP-A, %: pH 7.6.
The subject of another experiment is P. gingivalis. It is filed as cell-based. The conditions noted are these: for P. gingivalis growth (OD600): 37° C.
The subject of experiment [3] is PTP-A. It is filed as biochemical, P. gingivalis. The conditions noted are these: enzyme:substrate 1:100, 3 hours or 24 hours, 200 mM HEPES, pH 7.5, 37° C.; for Cleavage site mediated by PTP-A: 1 μg PTP-A.
For experiment [4], the system named is PTP-A. It is filed as biochemical, P. gingivalis. The conditions noted are these: 1 mM substrate, 0.2 M HEPES, pH 7.5 at 37° C.
Target sequence in this assay (Q7MUW6 81-732 limits assumed): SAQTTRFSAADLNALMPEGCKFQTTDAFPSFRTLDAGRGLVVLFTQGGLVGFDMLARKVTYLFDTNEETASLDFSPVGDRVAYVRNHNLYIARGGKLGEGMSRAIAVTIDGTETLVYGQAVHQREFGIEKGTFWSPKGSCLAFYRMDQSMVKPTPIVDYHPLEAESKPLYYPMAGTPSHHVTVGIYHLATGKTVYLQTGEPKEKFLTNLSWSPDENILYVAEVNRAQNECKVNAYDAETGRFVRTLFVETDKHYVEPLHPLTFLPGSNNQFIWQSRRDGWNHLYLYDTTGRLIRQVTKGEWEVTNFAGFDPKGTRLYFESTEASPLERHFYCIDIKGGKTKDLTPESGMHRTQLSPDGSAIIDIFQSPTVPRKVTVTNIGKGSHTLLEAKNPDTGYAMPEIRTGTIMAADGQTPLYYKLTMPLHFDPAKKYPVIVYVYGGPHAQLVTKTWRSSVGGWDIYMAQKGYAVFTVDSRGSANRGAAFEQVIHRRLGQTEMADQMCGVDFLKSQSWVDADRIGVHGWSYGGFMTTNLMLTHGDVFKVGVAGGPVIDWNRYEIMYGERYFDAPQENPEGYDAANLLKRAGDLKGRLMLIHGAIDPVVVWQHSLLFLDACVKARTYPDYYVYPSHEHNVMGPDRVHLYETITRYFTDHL
In experiment [5] the test system is DPP IV. Nature of the experiment: Cleavage specificity of DPP IV on synthetic peptides. It is filed as biochemical, P. gingivalis. The note with it: for Cleavage site mediated by DPP IV: same conditions as those used for PTP-A. The procedure:
Enzyme Specificity—Peptides were incubated with 1 μg PTP-A at an enzyme:substrate molar ratio of 1:100 for 3 hours or 24 hours in 50 μl of 200 mM HEPES, pH 7.5, at 37° C., and the reaction stopped by acidification with trifluoroacetic acid. The samples were then subjected to reverse-phase high pressure liquid chromatography using a μBondapak C-18 column (3.9×300 mm) (Waters, Millford, Mass.) and an acetonitrile gradient (0-80% in 0.075% trifluoroacetic acid in 50 min). Each peak, detected at 220 nm, was collected, lyophilized, redissolved in 50% (volume/volume) methanol, 0.1% acetic acid and subjected to analysis by mass spectrometry.
Mass Spectrometry—A Finnigan MAT 95S, sector mass spectrometer (Finnigan MAT, Bremen, Germany) equipped with an electrospray source (ESI) was used operated essentially as described previously (Stenfors, C., et al., (1997) J. Biol. Chem. 272, 5747-5751). Peptides were identified by fitting of the obtained spectra to specific sequences using an Internet application program MsFit available at http://falcon.ludwig.ucl.ac.uk/msfit.html.

Experiment [6] concerns PTP-A. It is filed as biochemical, P. gingivalis.

Where “and” joins values, the source holds several entries; their conditions need not be identical. Equal entries are not always repeated. Entries after “also recorded” stand apart in the source; their conditions may differ. Where two headings read alike, the source gives them in different places. Where no end group is shown, it is not given here. [ ]: non-standard residue; d: D form. The star is where a group is joined. pNA = O=[N+]([O-])c1ccc(N*)cc1; Cbz = O=C(OCc1ccccc1)*

For the compound `c1cnc2c(c1)ccc1cccnc12` [1,10-orthophenanthroline], the “Residual activity of DPP IV, %” value in the experiment on DPP IV [1] is recorded as 100%. Further, the “Residual activity of PTP-A, %” value in the experiment with PTP-A [2] is 93% and 100%.

Turning to `O=c1oc(Cl)c(Cl)c2ccccc12` [3,4-dichloroisocoumarin], in the experiment on DPP IV [1], the “Residual activity of DPP IV, %” value is 100%. Also, the “Growth of P. gingivalis” value in the experiment with P. gingivalis is given as “inhibits growth”. In addition, in the experiment with PTP-A [2], the “Effect on PTP-A amidolytic activity (in words)” value (shortened to “Effect”) was “only a poor inhibitor” and the “Residual activity of PTP-A, %” value is 200%. For `O=C(O)CN(CCN(CC(=O)O)CC(=O)O)CC(=O)O` [EDTA], the “Residual activity of DPP IV, %” value with DPP IV [1] was 100%. Also, in the experiment with PTP-A [2], the “Residual activity of PTP-A, %” value came out at 100%. On to `NC(=O)CI` [Iodoacetamide], for which, in the experiment on DPP IV [1], the “Residual activity of DPP IV, %” value is recorded as 100%. In addition, in the experiment with PTP-A [2], the “Effect” value was “stimulated enzyme amidolytic activity about two-fold” and the “Residual activity of PTP-A, %” value is listed as 100%. For `CC(=O)N[C@@H](CC(C)C)C(=O)N[C@@H](CC(C)C)C(=O)N[C@H](C=O)CCCNC(=N)N` [Leupeptin], the “Residual activity of DPP IV, %” value in the experiment with DPP IV [1] came out at 20%. In addition, in the experiment with PTP-A [2], the “Effect” value is “no effect at all” and the “Residual activity of PTP-A, %” value is listed as 100%. Turning to `CCN1C(=O)C=CC1=O` [N-Ethylmaleimide], the “Residual activity of DPP IV, %” value in the experiment with DPP IV [1] stood at 100%. Moreover, in the experiment on PTP-A [2], the “Effect” value is recorded as “not” and the “Residual activity of PTP-A, %” value stood at 98%.

Take `Cl.NCCc1ccc(S(=O)(=O)F)cc1` [PEFABLOC SC, 4-(2-aminoethyl)-benzenesulfonyl-fluoride hydrochloride]: the “Residual activity of DPP IV, %” value with DPP IV [1] stood at 100%. Besides, the “P. gingivalis growth (OD600)” value in the experiment on P. gingivalis (Pefabloc added at 0.5 mg/ml when the optical density began to increase) was “decreased growth”. For the same compound, the “P. gingivalis growth (OD600)” value with P. gingivalis (Pefabloc added at 2.0 mg/ml when the optical density began to increase) is recorded as “decreased growth”. Further, the “Growth of P. gingivalis” value in the experiment on P. gingivalis (treatment of cultures in lagphase and early logarithmic growth) is reported as “inhibits growth”. Also, in the experiment on PTP-A [2], the “Effect” value was “total loss of activity” and the “Residual activity of PTP-A, %” value is on record as 56%. Take `O=S(=O)(F)Cc1ccccc1` [Phenylmethanesulfonyl fluoride]: in the experiment with PTP-A [2], the “Effect” value is “no effect at all”. In the case of “Ac-Val-Pro-Pro-Gly-Glu-Asp-Ser-Lys (Ac-VPPGEDSK) [Peptide 9]”, the “Cleavage of peptide by PTP-A (in words)” value with PTP-A [3] was “resistance to enzymatic hydrolysis”. With Cbz-Ala-Pro-pNA, in the experiment with PTP-A [4], the “Hydrolysis of chromogenic substrate by PTP-A” value (“Hydrolysis” below) is “only H-Ala-Phe-Pro-pNA was hydrolyzed”.

As for Cbz-Gly-Pro-pNA, the “Hydrolysis” value in the experiment with PTP-A [4] is reported as “only H-Ala-Phe-Pro-pNA was hydrolyzed”. For “H-Ala-Arg-Pro-↓-Ala-D-Lys-amide (H-ARPA[dK]-NH2; SMILES C[C@H](N)C(=O)N[C@@H](CCCNC(=N)N)C(=O)N1CCC[C@H]1C(=O)N[C@@H](C)C(=O)N[C@H](CCCCN)C(N)=O) [Peptide 12]”, the “Cleavage site mediated by PTP-A” value in the experiment with PTP-A [3] was “H-Ala-Arg-Pro-↓-Ala-D-Lys-amide”. Take H-Ala-Phe-Pro-pNA: in the experiment with PTP-A [4], the “Hydrolysis” value is reported as “hydrolyzed”. For “H-Ala-Pro-↑-Val-Arg-Ser-Leu-Asn-Cys-Thr-Leu-Arg-Asp-Ser-Gln-Gln-Lys (APVRSLNCTLRDSQQK) [Peptide 24]”, the “Cleavage site mediated by DPP IV” value in the experiment with DPP IV [5] is “H-Ala-Pro-↑-Val-Arg-Ser-Leu-Asn-Cys-”. Consider “H-Arg-Gly-Pro-↓-Phe-Pro-Ile (RGPFPI) [Peptide 11]”, for which the “Cleavage site mediated by PTP-A” value with PTP-A [3] is “H-Arg-Gly-Pro-↓-Phe-Pro-Ile”. Same read-out and setting: the value for “H-Arg-His-Pro-↓-Lys-Tyr-Lys-Thr-Glu-Leu (RHPKYKTEL) [Peptide 14]” was “H-Arg-His-Pro-↓-Lys-Tyr-Lys-Thr-Glu-Leu”; that for “H-Arg-Pro-Pro-↓-Gly-Phe (RPPGF) [Peptide 2]” was “H-Arg-Pro-Pro-↓-Gly-Phe”. Turning to “H-Arg-Pro-Pro-↓-Gly-Phe-Ser-Pro-Phe-Arg (RPPGFSPFR) [Peptide 1]”, the “Cleavage site mediated by PTP-A” value in the experiment on PTP-A [3] is “H-Arg-Pro-Pro-↓-Gly-Phe-Ser-Pro-Phe-Arg”. As to “H-Arg-Pro-↑-Lys-Pro-↑-Gln-Gln-Phe-Phe-Gly-Leu-Met-NH2 (H-RPKPQQFFGLM-NH2) [Peptide 6]”, in the experiment with DPP IV [5], the “Cleavage by DPP IV (in words)” value is recorded as “found to cleave” and the “Cleavage site mediated by DPP IV” value was “Pro-↑-Lys; also recorded: Pro-↑-Gln”.

Consider H-Gly-Pro-pNA, for which, in the experiment with PTP-A [4], the “Hydrolysis” value is recorded as “only H-Ala-Phe-Pro-pNA was hydrolyzed”. As for “H-Gly-Val-Pro-↓-Lys-Thr-His-Leu-Glu-Leu (GVPKTHLEL) [Peptide 15]”, the “Cleavage site mediated by PTP-A” value in the experiment on PTP-A [3] is “H-Gly-Val-Pro-↓-Lys-Thr-His-Leu-Glu-Leu”. For the compound “H-Leu-Pro-↑-Asp-Leu-Asp-Ser-Ser-Leu-Ala-Ser-Ile-Gln-Glu-Leu-Leu-Ser-Pro-Gln-Glu-Pro-Pro-Arg-Pro-Pro-Glu-Ala (LPDLDSSLASIQELLSPQEPPRPPEA) [Peptide 20]”, in the experiment on DPP IV [5], the “Cleavage by DPP IV (in words)” value was “found to cleave” and the “Cleavage site mediated by DPP IV” value is on record as “H-Leu-Pro-↑-Asp-Leu-Asp-Ser-Ser-Leu-Ala-”. As for “H-Lys-Arg-Pro-Pro-Gly-Phe-Ser-Pro-Phe-Arg (KRPPGFSPFR; printed: Lys-Arg-Pro-Pro-Gly-Phe-Ser-Pro-Phe-Arg) [Peptide 3]”, the “Cleavage of peptide by PTP-A (in words)” value in the experiment with PTP-A [3] is “significant exception”. Consider “H-Pro-Asn-Pro-↓-Asn-Gln-Gly-Asn-Phe-Ile (PNPNQGNFI) [Peptide 13]”, for which the “Cleavage site mediated by PTP-A” value with PTP-A [3] is recorded as “H-Pro-Asn-Pro-↓-Asn-Gln-Gly-Asn-Phe-Ile”. H-Pro-pNA: in the experiment with PTP-A [4], the “Hydrolysis” value was “only H-Ala-Phe-Pro-pNA was hydrolyzed”. Regarding “H-Ser-Pro-↑-Tyr-Ser-Ser-Asp-Thr-Thr (SPYSSDTT) [Peptide 23]”, the “Cleavage site mediated by DPP IV” value in the experiment on DPP IV [5] is listed as “H-Ser-Pro-↑-Tyr-Ser-Ser-Asp-Thr-Thr”.

In the case of “H-Val-Glu-Pro-↓-Ile-Pro-Tyr (VEPIPY) [Peptide 10]”, the “Cleavage site mediated by PTP-A” value in the experiment on PTP-A [3] is reported as “H-Val-Glu-Pro-↓-Ile-Pro-Tyr”.

Regarding “H-Val-Pro-Pro-↓-Gly-Glu-Asp-Ser-Lys (VPPGEDSK) [Peptide 8]”, the “Cleavage site mediated by PTP-A” value in the experiment with PTP-A [3] is reported as “H-Val-Pro-Pro-↓-Gly-Glu-Asp-Ser-Lys”. As for “H-Val-Pro-Pro-↓-Gly-Glu-Asp-Ser-Lys-Glu-Val-Ala-Ala-Pro-His-Arg-Gln (VPPGEDSKEVAAPHRQ) [Peptide 7]”, in the experiment with PTP-A [3], the “Cleavage site mediated by PTP-A” value is recorded as “H-Val-Pro-Pro-↓-Gly-Glu-Asp-Ser-Lys-Glu-”. For the compound H-YRPPGFSPFR [Peptide 4], the “Cleavage of peptide by PTP-A (in words)” value in the experiment with PTP-A [3] is “significant exception”. Take IGVHGWXYGGFMTINL [SEQ ID NO:24]: the “Cleavage by DPP IV (in words)” value in the experiment with DPP IV [5] is recorded as “found to cleave”. Turning to “NH2-SAQTTRFSAADLNALMP (H-SAQTTRFSAADLNALMP; listed as Porphyromonas gingivalis) [SEQ ID NO:23]”, the “Cleavage by DPP IV (in words)” value with DPP IV [5] is “found to cleave”. For Val-Pro, the “Residual activity of DPP IV, %” value in the experiment on DPP IV [1] amounted to 1%. In the experiment on PTP-A [2], the “Residual activity of PTP-A, %” value stood at 100%.

In the case of albumin, the “Cleavage of protein by PTP-A (in words)” value in the experiment on PTP-A [6] is given as “absence of any proteolytic activity”. As for gelatin, the “Cleavage of protein by PTP-A (in words)” value in the experiment on PTP-A [6] is given as “absence of any proteolytic activity”. As for interleukin 6: protein substrate, in the experiment on PTP-A [6], the “Cleavage of protein by PTP-A (in words)” value was “able to cleave a tripeptide”. Turning to “α1-proteinase inhibitor: Human plasma inhibitor”, in the experiment with PTP-A [2], the “Effect” value is reported as “did not affect the enzyme activity”. Also, the “Cleavage of protein by PTP-A (in words)” value in the experiment on PTP-A [6] is reported as “nor were they cleaved by PTP-A”.

Source of the values: patent US6875851B1 (priority 1999, dated 2005).
